This passage reports IC50 results from ChEMBL document CHEMBL1201862, “PubChem BioAssay data set” (2004).

The IC50 is the concentration at which inhibition is half-maximal.

The assay concerns the target Envelope glycoprotein gp160 (Human immunodeficiency virus 1, UniProt Q6QLK5). The assay can be described thus: cell-free HIV fusion peptide-binding blockers – biochemical, uHTS, fluorescence dequenching, […] (AID 1986).

Activity calls are given as the source filed them. No stated cut-off is given here; in the data, actives have a measured IC50 and inactives only a lower limit.

Chain of Envelope glycoprotein gp160 (Q6QLK5 whole entry, the tested form may be a part): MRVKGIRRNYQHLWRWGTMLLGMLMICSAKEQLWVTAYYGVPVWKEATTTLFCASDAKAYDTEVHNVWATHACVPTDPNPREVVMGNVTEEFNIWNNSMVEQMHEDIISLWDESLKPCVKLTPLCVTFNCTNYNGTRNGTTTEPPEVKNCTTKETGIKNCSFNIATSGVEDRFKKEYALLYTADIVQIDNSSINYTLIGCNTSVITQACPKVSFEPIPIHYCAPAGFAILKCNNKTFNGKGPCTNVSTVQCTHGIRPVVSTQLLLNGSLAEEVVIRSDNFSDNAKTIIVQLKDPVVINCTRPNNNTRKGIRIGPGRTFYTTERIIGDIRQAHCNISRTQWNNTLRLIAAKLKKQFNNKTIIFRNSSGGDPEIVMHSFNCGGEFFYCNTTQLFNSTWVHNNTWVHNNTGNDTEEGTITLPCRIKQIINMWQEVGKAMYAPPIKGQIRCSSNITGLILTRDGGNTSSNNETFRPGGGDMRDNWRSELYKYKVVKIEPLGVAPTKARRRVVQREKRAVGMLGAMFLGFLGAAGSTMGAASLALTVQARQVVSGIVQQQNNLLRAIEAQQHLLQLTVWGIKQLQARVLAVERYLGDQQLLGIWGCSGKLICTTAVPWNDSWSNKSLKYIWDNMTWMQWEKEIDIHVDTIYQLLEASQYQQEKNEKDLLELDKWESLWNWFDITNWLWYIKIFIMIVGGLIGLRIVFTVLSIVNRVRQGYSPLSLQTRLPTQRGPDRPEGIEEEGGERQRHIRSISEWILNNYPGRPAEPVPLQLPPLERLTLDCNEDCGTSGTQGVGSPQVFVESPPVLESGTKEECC

`Cc1cc(C)c2nc(N3C(=O)C(O)=C(C(=O)c4ccco4)C3c3ccco3)sc2c1` (stereo unspecified): the IC50 is 12.4 µM (active).
